The values below come from EP4640672A1, “ETHYLENEDIAMINE DERIVATIVE, AND PREPARATION METHOD THEREFOR AND USE THEREOF” (Jiangsu Protelight Pharmaceutical & Biotechnology Co., Ltd., priority 2022, dated 2024).

In general, IC50 refers to the concentration needed to halve the response being measured. A high value points to lower potency.

In experiment [1] the test system is A549 lung cancer cells. The experiment is described as follows: in vivo anti-tumor efficacy assay, subcutaneous tumor model. As to conditions: BALB/c nude mice, intraperitoneally 20 mg/kg once per two days, 10 times; for Tumor inhibition rate: calculated from tumor weight; for Mean tumor weight (g) (mean ± SD): weighed on 2nd day after last administration. The procedure: An in vivo efficacy evaluation model was established in BALB/c nude mice. Each mouse was inoculated subcutaneously with 0.15 mL of tumor cell suspension (A549 lung cancer cells, 2 x 10^7 cells/ml) in the axillary fossa of the right forelimb. When the inoculated cells grew to 300 mm^3, the administration was started. On the 22nd day after inoculation, the mice were intraperitoneally administered (20 mg/kg) once per two days for a total of 10 times. On the 2nd day after the last administration, all the tumor-bearing mice were sacrificed, the tumors were weighed and the tumor inhibition rate was calculated. […] Table 3 Results of in vivo anti-tumor activity of the example compounds

Experiment [2] has as its system Liver cancer HepG2. As to the kind of experiment: in vitro anti-tumor activity assay (MTT method). The format is cell-based, human. Conditions: Liver cancer HepG2, culture medium High-sugar DMEM, 48 h of culture. The method, then:
(§1) Five human tumor cell lines were selected and cultured in RPMI-1640 (Gibco) or DMEM (Gibco) or GMEM/F12 medium (Gibco) containing 10% inactivated fetal bovine serum, 100 U/ml penicillin and […] streptomycin in an incubator containing 5% CO2 at 37°C. Logarithmically growing cells were seeded in 96-well plates (100 µl per well, 2 x 10^4 cells) using the MTT method, while setting blank control wells. After overnight incubation in the incubator, 100 µl of drug (final concentration 25 µM diluted to 0.39 µM, a total of 7 groups of drug concentrations) was added, an equal volume of culture medium was added in the blank control wells, and 3 duplicate wells were set for each drug concentration. After 48 h of culture, the supernatant was discarded. After washing twice with PBS, 100 µl of MTT (5mg/ml) was added to each well, and the culture was continued for 2 h. Absorbance (A492nm) was measured by a microplate reader to calculate the inhibition rate of the drug on tumor cells.
(§2) IC50 values of compounds on tumor cells were calculated using GraphPad software. […] Table 2. In vitro anti-tumor activity IC50 (µM) of example compounds

Experiment [3] relates to Lung cancer A549. The experiment is described as follows: in vitro anti-tumor activity assay (MTT method). In kind it is cell-based, human. As to conditions: Lung cancer A549, culture medium F12, 48 h of culture. The procedure: as §1, §2
On the technique in general: Tetrazolium dyes change colour on reduction, which living cells bring about.

Experiment [4] concerns Lung cancer H460. As to the kind of experiment: in vitro anti-tumor activity assay (MTT method). The format is cell-based, human. As to conditions: 48 h of culture. The procedure:
as §1, §2

For experiment [5], the system named is Prostate cancer PC-3. The experiment is described as follows: in vitro anti-tumor activity assay (MTT method). The format is cell-based, human. As to conditions: Prostate cancer PC-3, culture medium F12, 48 h of culture. The method, then:
as §1, §2

In experiment [6] the test system is Prostate cancer LNcap. The experiment is described as follows: in vitro anti-tumor activity assay (MTT method). In kind it is cell-based, human. Conditions: culture medium RPMI-1640, 48 h of culture. The method, then: as §1, §2
The mark [7] stands for this setting: Homo sapiens, NCI-H460, Lung cancer H460, culture medium High-sugar DMEM.

In the case of `CC1(C)CC(NC[C@H](Cc2ccc(-c3ccccc3)cc2)NC(=O)C=Cc2ccccc2)CC(C)(C)N1` (stereo in doubt) [Cpd014, (S)-N-(1-([1,1'-biphenyl]-4-yl)-3-((2,2,6,6-tetramethylpiperidin-4-yl)amino)propan-2-yl)cinnamamide], in experiment [1], the Tumor inhibition rate is given as 32.73%. The “Mean tumor weight (g) (mean ± SD)” value in experiment [1] was determined as 0.448 ± 0.128 g. Also, the half-maximal inhibitory concentration (IC50) in experiment [2] (Homo sapiens) was 1090 nM; in experiment [3] (Homo sapiens), 2340 nM; in experiment [4] (setting [7]), 1580 nM; in experiment [5] (Homo sapiens), 3.31 µM; in experiment [6] (Homo sapiens), 1020 nM.
On to `N.N.[Cl][Pt][Cl]` [Cisplati num, Cisplatinum], for which the IC50 in experiment [2] amounted to 30800 nM; in experiment [3], 34000 nM; in experiment [4] (Lung cancer H460, culture medium High-sugar DMEM), 20400 nM; in experiment [5], 68.6 µM; in experiment [6], 11600 nM.
Turning to `CC1(C)CC(NC[C@H](Cc2ccc(OCc3c(Cl)cccc3Cl)cc2)NC(=O)C/C=C/c2ccccc2)CC(C)(C)N1` [Cpd001, (S,E)-N-(1-(4-((2,6-dichlor obenzyl)oxy)phenyl)-3-((2,2,6,6-tetramethylpiperidin-4-yl)amino)propan-2-yl)-4-phenylbut-3-enamide], the IC50 in experiment [2] (Homo sapiens) was determined as 970 nM; in experiment [3] (Homo sapiens) it was 2690 nM; in experiment [4] (setting [7]), 990 nM; in experiment [5] (Homo sapiens), 3.03 µM; in experiment [6] (Homo sapiens) it was 3760 nM.
Taken in the same sequence, the figures for `CCC(C(=O)N[C@H](CNC1CC(C)(C)NC(C)(C)C1)Cc1ccc(-c2ccccc2)cc1)C1CCCCC1` (stereo partly drawn) [Cpd009, N-((S)-1-([1,1'-biphenyl]-4-yl)-3-((2,2,6,6-tetramethylpiperidin-4-yl)amino)propan-2-yl)-2-cyclohexylbutanamide] were 1470 nM, 1940 nM, 2260 nM, 3.73 µM and 1510 nM.
For the compound `CC(=O)O[C@@]12CO[C@@H]1C[C@H](O)[C@@]1(C)C(=O)[C@H](O)C3=C(C)[C@@H](OC(=O)[C@H](O)[C@@H](NC(=O)OC(C)(C)C)c4ccccc4)C[C@@](O)([C@@H](OC(=O)c4ccccc4)[C@H]21)C3(C)C` [Docetaxol, docetaxel], in experiment [1], the Tumor inhibition rate is reported as 5.29% and the “Mean tumor weight (g) (mean ± SD)” value was 0.631 ± 0.231 g.
For the compound `CC1(C)CC(NC(=O)C(Cc2ccc(-c3ccccc3)cc2)NC(=O)c2cc3ccccc3n2Cc2ccccc2)CC(C)(C)N1` (stereo not drawn) [PL-AC-15], the IC50 in experiment [2] (Homo sapiens) amounted to 1910 nM; in experiment [3] (Homo sapiens) it was 4380 nM; in experiment [4] (setting [7]), 2370 nM; in experiment [5] (Homo sapiens), 4.31 µM; in experiment [6] (Homo sapiens), 1920 nM.
Turning to `COc1ccc2cc(C(C)C(=O)NC(Cc3ccc(-c4ccccc4)cc3)C(=O)NC3CC(C)(C)NC(C)(C)C3)ccc2c1` (stereo not drawn) [PL-AC-202], the Tumor inhibition rate in experiment [1] was 19.37%. In experiment [1], the “Mean tumor weight (g) (mean ± SD)” value was 0.537 ± 0.198 g. Moreover, the IC50 was 430 nM in experiment [2] (Homo sapiens); 3050 nM in experiment [3] (Homo sapiens); 1650 nM in experiment [4] (setting [7]); 1.65 µM in experiment [5] (Homo sapiens); 3240 nM in experiment [6] (Homo sapiens).
